Experiments:
[1] = system: A2780, A2780cis, and KM-H2 cells; assay type: cell-based, human; conditions: 24 h
Experimental: Supplemental Figure S6. Cytotoxic activity of K6-FITC. A2780, A2780cis, and KM-H2 cells were cultured with K6-FITC. After 24 hours cell viability was evaluated by MTT assay for A2780 and A2780cis and by MTS assay for KM-H2 cells. Results are mean and SD of three independent experiments. IC50 was calculated using Calcusyn software.
(1 picture or pasted object on this page, not shown here)

SKOV3-MCTSs [2] = test: K6-FITC penetration in spheroids, confocal microscopy; assay type: cell-based, human; conditions: 20 µM K6-FITC, four-day-old single spheroids, confocal time-lapse
Experimental: (§1) The uptake of peptaibols was evaluated by confocal microscopy and flow cytometry using the fluorescent K6-FITC analog. For confocal microscopy, cells were plated onto glass bottom culture dishes and treated with K6-FITC (30 µM) and propidium iodide (PI) 2 µg/mL. K6-FITC uptake was monitored using confocal microscope in time-lapse xyzt acquisition mode (Leica DM IRE2) keeping cells at 37 °C and 5% CO2. To trace peptaibol penetration in spheroids, single four-day-old SKOV3-MCTs were incubated with K6-FITC (20 µM) and images acquired using confocal microscopy.

A2780 = test: cells; conditions: A2780, 24 h
Experimental: (§2) OvCa cells and fibroblasts were seeded in 96 well (10.0 × 10^3) the day before treatment to allow cell adherence. […] Half maximal inhibitory concentrations (IC50) were calculated using CalcuSyn software, v2.1 (Biosoft, Ferguson, MO, USA). Fold resistance (FR) was calculated as the ratio of the IC50 of drug-resistant cell line (KM-H2dx, HDLM-2dx, and A2780cis) to that of the respective parental cell line (KM-H2, HDLM-2, and A2780).

KM-H2 = test: cells; conditions: KM-H2, 24 h
Experimental: as §2

[3] = system: A2780cis (cisplatin-resistant clone of A2780); test: cells; conditions: for IC50: A2780cis, 24 h; for fold resistance (FR): ratio IC50 A2780cis / IC50 A2780
Experimental: (§3) Authenticated cHL-derived cell lines L-1236, L-428, KM-H2, and HDLM-2 were from DSMZ (Braunschweig, Germany). Doxorubicin-resistant KM-H2dx and HDLM-2dx cells were developed in our laboratory by continuous exposure of KM-H2 and HDLM-2 cells to 35 nM doxorubicin. HDLM-2dx and KM-H2dx cells were maintained in doxorubicin and cultured without the drug 72 h before use. All cell lines are here collectively called “cHL cells”. Authenticated OvCa cell lines A2780 and A2780cis were from Sigma-Aldrich, (Milano, Italy) SKOV3 (HTB-77) were obtained from the American Type Culture Collection (ATCC), OVCAR5 (NIH) were provided by Dr. Baldassarre (CRO, Aviano, Italy). A2780cis cells were maintained in 1 µM cisplatin and cultured without the drug for 72 h before use. […] Peripheral blood mononuclear cells (PBMCs) were obtained from healthy donor blood by density gradient centrifugation on a Ficoll-Paque PLUS (GE Healthcare); they were washed twice with PBS before use and cultured in RPMI-1640 medium containing 10% fetal bovine serum. Human dermal fibroblasts, a generous gift of Dr. Capuano [44], were maintained in Dulbecco′s Modified Eagle′s Medium (DMEM) high glucose (Gibco) plus 10% fetal bovine serum.
as §2

[4] = system: A2780 and HDLM-2 vs PBMCs and fibroblasts; test: K6-FITC uptake by flow cytometry, tumor vs normal cells; assay type: cell-based, human; conditions: 0.25–2.5 µM K6-FITC, 5, 30 and 120 min, three independent experiments
Experimental: For flow cytometry, cells were treated with different concentrations of K6-FITC (0–2.5 µM). After 5, 30 and 120 min of incubation, cells were washed and evaluated for green fluorescence intensity by flow cytometry on a BD FACSCanto II flow cytometer. Annexin-V assay: cells were treated with peptaibols for 24 h, then stained for 15 min with FITC AnnexinV (Thermo Fisher Scientific, Monza, Italy) and 7-Amino-Actinomycin D (7AAD) (BD Pharmingen, Milano, Italy) and analyzed using flow cytometry. Data were analyzed using BD FACSDiva v.8.0.1 software (BD Biosciences, Milano, Italy).

KM-H2 cells = test: K6-FITC uptake, time-lapse confocal microscopy with PI; assay type: cell-based, human; conditions: KM-H2, 30 µM K6-FITC, PI 2 µg/mL, 60 min of incubation, 37 °C
Experimental: as §1

A2780 and A2780cis = test: as above; assay type: cell-based, human; conditions: 30 µM K6-FITC, 37 °C
Experimental: as §1

SKOV3 = test: cells
Experimental: as §2

L-1236 = test: cells; conditions: L-1236, 24 h
Experimental: as §2

L-428 = test: cells; conditions: L-428, 24 h
Experimental: as §2

HDLM-2 = test: cells; conditions: HDLM-2, 24 h
Experimental: as §2

OVCAR5 = test: cells
Experimental: as §2

[5] = system: KM-H2dx (doxorubicin-resistant clone of KM-H2); test: cells; conditions: for fold resistance (FR): ratio IC50 KM-H2dx / IC50 KM-H2
Experimental: as §3, §2

[6] = system: HDLM-2dx (doxorubicin-resistant clone of HDLM-2); test: cells; conditions: for fold resistance (FR): ratio IC50 HDLM-2dx / IC50 HDLM-2
Experimental: as §3, §2

SKOV3-MCTSs [7] = test: SKOV3 spheroid cell viability, PrestoBlue; assay type: cell-based, human; conditions: 24 h treatment
From the text: Multiple SKOV3-MCTSs were obtained by seeding 10.0 × 10^3 cells in non-adherent conditions.

human fibroblasts = test: Cytotoxicity in healthy cells, MTT assay; conditions: healthy human dermal fibroblasts, 24 h, mean (SD)
Experimental: (§4) Authenticated cHL-derived cell lines L-1236, L-428, KM-H2, and HDLM-2 were from DSMZ (Braunschweig, Germany). Doxorubicin-resistant KM-H2dx and HDLM-2dx cells were developed in our laboratory by continuous exposure of KM-H2 and HDLM-2 cells to 35 nM doxorubicin. HDLM-2dx and KM-H2dx cells were maintained in doxorubicin and cultured without the drug 72 h before use. All cell lines are here collectively called “cHL cells”. Authenticated OvCa cell lines A2780 and A2780cis were from Sigma-Aldrich, (Milano, Italy) SKOV3 (HTB-77) were obtained from the American Type Culture Collection (ATCC), OVCAR5 (NIH) were provided by Dr. Baldassarre (CRO, Aviano, Italy). A2780cis cells were maintained in 1 µM cisplatin and cultured without the drug for 72 h before use. […]
as §2

[8] = system: human peripheral blood mononuclear cells (PBMCs); test: Cytotoxicity in healthy cells, MTS assay; conditions: 24 h, mean (SD)
Experimental: as §4, §2

SKOV3-MCTSs [9] = test: SKOV3 spheroid (MCTS) volume; assay type: cell-based, human; conditions: 25 µM, 3 days of treatment, four-day old single spheroids
Experimental: To obtain the 3 dimensional (3D) SKOV3-MCTSs, cells were cultured in non-adherent conditions on plates coated twice with 20 mg/mL of poly(2-hydroxyethyl methacrylate) (poly-HEMA; Sigma) in 95% ethanol. Single spheroids with defined size were generated by culturing 1.0 × 10^3 SKOV3 cells onto poly-HEMA-coated 96-well for 4 days. Then, single SKOV3-MCTSs were treated with increasing concentrations of peptaibols (0–25 µM). SKOV3-MCTSs size was measured and photographed up to 72 h after treatment initiation using an inverted microscope (Eclipse TS/100, Nikon) with the DS Camera Control Unit DS-L2 photo micrographic system. SKOV3-MCTSs volumes were calculated using the formula: (width^2 × length × 3.14)/6 [47].

Row | Compound | IC50 (A2780; MTT, mean (SD)) | IC50 (KM-H2; MTS, mean (SD)) | IC50 ([3]; MTT, mean (SD)) | IC50 (SKOV3; SKOV3, 24 h, MTT, mean (SD)) | IC50 (L-1236; MTS, mean (SD)) | IC50 (L-428; MTS, mean (SD)) | IC50 (HDLM-2; MTS, mean (SD)) | IC50 (OVCAR5; OVCAR5, 24 h, MTT, mean (SD)) | fold resistance (FR) [3] | IC50 ([5]; KM-H2dx, 24 h, MTS, mean (SD)) | fold resistance (FR) [5] | IC50 ([6]; HDLM-2dx, 24 h, MTS, mean (SD)) | fold resistance (FR) [6] | other results
1 | CCCCCCCC(=O)NC(C)(C)C(=O)NCC(=O)N[C@@H](CC(C)C)C(=O)NC(C)(C)C(=O)NCC(=O)N[C@@H](CCCCN)C(=O)N[C@@H](CC(C)C)C(=O)NC(C)(C)C(=O)NCC(=O)N[C@H](C(=O)N[C@@H](CC(C)C)C(=O)NCCNC(=S)Nc1ccc2c(c1)C(=O)OC21c2ccc(O)cc2Oc2cc(O)ccc21)[C@@H](C)CC [K6-FITC] | 24.5 µM | 30 µM | 29 µM |  |  |  |  |  |  |  |  |  |  | IC50 [1]: ~30 µM; penetration into SKOV3-MCTSs (SKOV3-MCTSs [2]): rapidly and deeply penetrated; uptake (mean fluorescence intensity) by tumor cells compared with normal cells [4]: in a higher quantity and in a faster way; uptake and PI staining (KM-H2 cells): all cells were double stained; uptake (A2780 and A2780cis): rapidly taken up in both cell lines
2 | N.N.[Cl][Pt][Cl] [Cisplatin, cisplatin] | 1.3 µM | 0.5 µM | 10.4 µM | 7.7 µM | 0.8 µM | 0.5 µM | 1.3 µM | 7.7 µM | 8 | 1.2 µM | 2.6 | 4 µM | 3.11 | 
3 | CCCCCCCC(=O)NC(C)(C)C(=O)NCC(=O)N[C@@H](CC(C)C)C(=O)NC(C)(C)C(=O)NCC(=O)N[C@@H](CCCCN)C(=O)N[C@@H](CC(C)C)C(=O)NC(C)(C)C(=O)NCC(=O)N[C@H](C(=O)N[C@H](CO)CC(C)C)[C@@H](C)CC [K6-Lol] | 7.9 µM | 7.5 µM | 9.1 µM | 8.4 µM | 11.7 µM | 8.9 µM | 12.6 µM | 7.5 µM |  | 7.2 µM | ~1 | 11.9 µM | ~1 | SKOV3-MCTS cell viability (SKOV3-MCTSs [7]): dose-dependent decrease; IC50 (human fibroblasts): 15.0 (1.4) µM; IC50 [8]: 7.1 (0.4) µM; SKOV3-MCTS volume (SKOV3-MCTSs [9]): completely eliminated them
4 | COc1cccc2c1C(=O)c1c(O)c3c(c(O)c1C2=O)C[C@@](O)(C(=O)CO)C[C@@H]3O[C@H]1C[C@H](N)[C@H](O)[C@H](C)O1 [Doxorubicin] |  |  |  |  |  |  |  |  | 5.6 |  | 9 |  | 9 | IC50 (SKOV3; Homo sapiens, SK-OV-3, 24 h): 0.13 µM; IC50 (L-1236; Homo sapiens): 0.0464 µM; IC50 (A2780; Homo sapiens): 0.0204 µM; IC50 (KM-H2; Homo sapiens): 0.0221 µM; IC50 (L-428; Homo sapiens): 0.0184 µM; IC50 (HDLM-2; Homo sapiens): 0.0405 µM; IC50 (OVCAR5; Homo sapiens, OVCAR-5, 24 h): 0.47 µM; IC50 ([3]; Homo sapiens): 0.116 µM; IC50 ([5]; Homo sapiens, KM-H2, 24 h): 0.202 µM; IC50 ([6]; Homo sapiens, HDLM-2, 24 h): 0.368 µM

Source: publication PMC8394784, “Analogs of a Natural Peptaibol Exert Anticancer Activity in Both Cisplatin- and Doxorubicin-Resistant Cells and in Multicellular Tumor Spheroids” (International Journal of Molecular Sciences, 2021)
